Experimental data taken from article PMC8440459 (Neurotoxicology, 2021).
Entries after “also recorded” stand apart in the source; their conditions may differ.

Assays:
equine liver GST [1] = target: T1, equine liver GST (Equus caballus, UniProt A0A9L0RPC4); assay: Protection of GST activity from DOPAL, DA or DOPAC; format: biochemical; details: 1mM protectant, 100μM DA
equine liver GST [2] = target: T1, equine liver GST; assay: Nitro blue tetrazolium staining of equine liver GST; details: 1mM protectant
[3] = target: bovine serum albumin (BSA) (Bos taurus, UniProt P02769); assay: Nitro blue tetrazolium staining of BSA modified by DOPAL; details: 0.5mg/mL BSA, 4 hours at 37°C, L-cysteine effect at 1mM
equine liver GST [4] = target: T1, equine liver GST; assay: Reversibility of equine liver GST inhibition; format: biochemical; details: for GST activity after application to Bio-Spin 6 Tris Columns / Inhibition of GST after incubation with known reversible inhibitor: 500μM, data not shown; for GST activity after application to Bio-Spin 6 Tris Columns: after column; for Inhibition of GST after incubation with known reversible inhibitor: before column; for Reversibility of inhibition of GST activity: 100μM inhibitor, with or without size exclusion column
[5] = target: GST isolated from N27 dopaminergic cells (Rattus norvegicus, UniProt P04906); assay: CDNB assay of GST isolated from N27 cells; format: biochemical
equine liver GST [6] = target: T1, equine liver GST; format: biochemical; details: 4 hours at 37°C
equine liver GST [7] = target: T1, equine liver GST; assay: Time dependency of equine liver GST inhibition; format: biochemical; details: for GST activity after 24-hour incubation: 100μM inhibitor, compared with 4 hours; for Time dependency of inhibition of GST activity: aliquots after 1, 2 and 4 hours of incubation
dopaminergic cells = details: ref Schamp and Doorn, 2017; cited from earlier work

GST isolated from N27 dopaminergic cells, sequence (P04906 whole entry): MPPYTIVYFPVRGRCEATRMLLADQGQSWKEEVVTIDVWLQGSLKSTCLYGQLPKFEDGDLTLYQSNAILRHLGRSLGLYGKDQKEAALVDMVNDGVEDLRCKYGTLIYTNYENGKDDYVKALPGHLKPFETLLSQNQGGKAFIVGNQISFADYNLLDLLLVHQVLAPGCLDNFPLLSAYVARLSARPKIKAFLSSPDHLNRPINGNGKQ
bovine serum albumin (BSA), sequence (P02769 25-607): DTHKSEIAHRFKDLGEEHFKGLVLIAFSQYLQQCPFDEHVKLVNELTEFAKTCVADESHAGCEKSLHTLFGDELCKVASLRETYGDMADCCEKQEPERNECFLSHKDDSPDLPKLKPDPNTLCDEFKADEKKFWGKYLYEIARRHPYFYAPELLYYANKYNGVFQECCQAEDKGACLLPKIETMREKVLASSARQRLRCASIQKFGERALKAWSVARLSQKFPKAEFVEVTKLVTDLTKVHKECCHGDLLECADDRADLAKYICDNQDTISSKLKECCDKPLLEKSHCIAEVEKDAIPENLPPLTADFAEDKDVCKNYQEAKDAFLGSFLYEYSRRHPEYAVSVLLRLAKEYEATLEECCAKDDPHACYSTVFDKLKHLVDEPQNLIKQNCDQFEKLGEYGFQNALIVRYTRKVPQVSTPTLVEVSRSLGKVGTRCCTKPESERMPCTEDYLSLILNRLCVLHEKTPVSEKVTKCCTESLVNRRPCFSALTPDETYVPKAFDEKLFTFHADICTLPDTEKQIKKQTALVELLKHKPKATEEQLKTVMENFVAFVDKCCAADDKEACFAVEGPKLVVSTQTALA

Compound: NCCC(=O)N[C@@H](Cc1cnc[nH]1)C(=O)O [Carnosine, carnosine]
- Protection of GST activity against inhibition by DA (equine liver GST [1]): significant protection; also recorded: partial activity retention
- Protection against modification of equine liver GST by 100 μM DOPAL (NBT stain) (equine liver GST [2]): moderately protective
- Reduction of NBT staining of BSA modified by 200μM DOPAL [3]: did not significantly reduce protein modification

Compound: N[C@@H](CS)C(=O)O [L-cysteine]
- Reduction of NBT staining of BSA modified by 200μM DOPAL [3]: significantly reduced NBT staining

Compound: O=C(O)/C=C/c1ccc(O)c(O)c1 [caffeic acid]
- GST activity after application to Bio-Spin 6 Tris Columns (equine liver GST [4]): regained the full value of its original activity
- Inhibition of GST after incubation with known reversible inhibitor (equine liver GST [4]): significant inhibition

Compound: O=CCc1ccc(O)c(O)c1 [DOPAL, 3,4-dihydroxyphenylacetaldehyde]
- IC50 [5]: 31.5 µM
- Concentration giving significant inhibition of commercially available GST (equine liver GST [6]): 5 µM
- GST activity after 24-hour incubation (equine liver GST [7]): almost completely nulls enzyme activity
- Time dependency of inhibition of GST activity (equine liver GST [7]): time dependent
- Reversibility of inhibition of GST activity (equine liver GST [4]): irreversible
- Concentration toxic to dopaminergic cells (dopaminergic cells): 7 µM

Compound: O=C(O)Cc1ccc(O)c(O)c1 [DOPAC, 3,4-dihydroxyphenylacetic acid]
- IC50 [5]: 260 µM
- Time dependency of inhibition of GST activity (equine liver GST [7]): time dependent
- Reversibility of inhibition of GST activity (equine liver GST [4]): irreversible

Compound: CCCCCCSC[C@H](NC(=O)CC[C@H](N)C(=O)O)C(=O)NCC(=O)O [S-hexylglutathione]
- GST activity after application to Bio-Spin 6 Tris Columns (equine liver GST [4]): regained the full value of its original activity
- Inhibition of GST after incubation with known reversible inhibitor (equine liver GST [4]): significant inhibition

Compound: NCCc1ccc(O)c(O)c1 [DA, dopamine]
- IC50 [5]: 82.3 µM
- GST activity after 24-hour incubation (equine liver GST [7]): almost completely nulls enzyme activity
- Time dependency of inhibition of GST activity (equine liver GST [7]): time dependent
- Reversibility of inhibition of GST activity (equine liver GST [4]): irreversible
